In ChEMBL document CHEMBL5365521, “Discovery of the Potent and Selective Inhaled Janus Kinase 1 Inhibitor AZD4604 and Its Preclinical Characterization” (J Med Chem, 2023):
In brackets after ≈: the same amount, converted by molar mass. Activity calls are given as the source filed them. No cut-off for these calls is given here.

Columns and labels:
[1] = tested on: Th2 cell; assay: Inhibition of human naive Th2 cell differentiation assessed as decrease in IL-5 production measured after 5 days by MSD assay; type: functional, cell-based; conditions: time 5.0 day
[2] = Toxicity in human memory-derived Th17 cells assessed as reduction in cell viability at 1 to 10000 nM; type: cell-based; conditions: th17, 10 µM, dose 1-10000 nM
[3] = tested on: Th17; assay: Inhibition of human memory-derived Th17 cell differentiation assessed as decrease in IL-17 production measured after 5 days by MSD assay; type: functional, cell-based; conditions: time 5.0 day
[4] = Inhibition of JAK/STAT signaling pathway in human CD4+ T cell assessed as inhibition of IL-4 stimulated STAT6 phosphorylation preincubated for 20 to 60 mins followed by IL-4 stimulation measured after 15 mins by flow cytometry analysis; type: cell-based
[5] = (§1) Inhibition of JAK/STAT signaling pathway in human CD14-positive cell monocytes isolated from human PBMC assessed as inhibition of IL-13 stimulated STAT6 phosphorylation preincubated for 20 to 60 mins followed by IL-13 stimulation measured after 15 mins by flow cytometry analysis; type: cell-based
[6] = Toxicity in human naive Th2 cell assessed as reduction in cell viability at 1 to 10000 nM; type: cell-based; conditions: 10 µM, dose 1-10000 nM
[7] = tested on: Th1 cell; assay: Inhibition of human naive Th1 cell differentiation assessed as decrease in IFNg production measured after 5 days by MSD assay; type: functional, cell-based; conditions: dose 1-10000 nM, time 5.0 day
[8] = Toxicity in human CD4+ T cell assessed as reduction in cell viability measured after 5 days by eFluor780 staining based flow cytometry analysis; conditions: 120 h, dose 1-10000 nM, time 5 day
[9] = tested on: Th2 cell; assay: Inhibition of human naive Th2 cell differentiation assessed as decrease in IL-4 production measured after 5 days by MSD assay; type: functional, cell-based; conditions: dose 1-10000 nM, time 5.0 day
[10] = Inhibition of JAK/STAT signaling pathway in human CD14-positive cell monocytes isolated from human PBMC assessed as inhibition of IL-4 stimulated STAT6 phosphorylation preincubated for 20 to 60 mins followed by IL-4 stimulation measured after 15 mins by flow cytometry analysis; type: cell-based
[11] = tested on: Th2 cell; assay: Inhibition of human naive Th2 cell differentiation assessed as decrease in IL-13 production measured after 5 days by MSD assay; type: functional, cell-based; conditions: time 5.0 day
[12] = tested on: CD4+ T cell; assay: Antiinflammatory activity in human CD4+ T cell assessed as reduction in CD25 expression measured after 5 days by eFluor780 staining based flow cytometry analysis; type: functional; conditions: dose 1-10000 nM, time 5.0 day
[13] = Toxicity in human naive Th1 cell assessed as reduction in cell viability at 1 to 10000 nM; type: cell-based; conditions: 10 µM, dose 1-10000 nM
[14] = Solubility in phosphate buffer at pH 7.4; type: physicochemical
[15] = Metabolic stability in human hepatocyte assessed as intrinsic clearance measured per 10^6 cells; type: ADME, cell-based; conditions: hepatocytes, read-out: CLH
[16] = Drug uptake in lung of rat at 0.06 to 24.79 microg/kg via inhalation measured upto 24 hrs by LC-MS/MS analysis; type: ADME, tissue-based; conditions: in vivo, inhaled_or_intranasal, dose 0.06-24.79 µg/kg
[17] = Metabolic stability in rat hepatocyte assessed as intrinsic clearance measured per 10^6 cells; type: ADME, cell-based; conditions: hepatocytes, read-out: CLH
[18] = Plasma protein binding in human assessed as free fraction; type: ADME, cell-free
[19] = Thermodynamic solubility of the compound in phosphate buffer at pH 7.4 measured after 24 hrs by HPLC-MS analysis; type: physicochemical; conditions: read-out: Therm_solubility
[20] = Apparent permeability of compound across apical to basolateral side in human Caco-2 cells at pH 7.4; type: ADME, cell-based; conditions: Caco-2, pH 7.4
[21] = Distribution coefficient between 1-Octanol and aqueous phosphate buffer, logD of the compound at pH 7.4 by shake-flask method; type: physicochemical
[22] = molecular target: T1, Tyrosine-protein kinase JAK1 (Homo sapiens, UniProt P23458); assay: Inhibition of GST-tagged human recombinant JAK1 (866 to 1154 residues) expressed in insect cells
T1 sequence (P23458 whole entry, the tested form may be a part): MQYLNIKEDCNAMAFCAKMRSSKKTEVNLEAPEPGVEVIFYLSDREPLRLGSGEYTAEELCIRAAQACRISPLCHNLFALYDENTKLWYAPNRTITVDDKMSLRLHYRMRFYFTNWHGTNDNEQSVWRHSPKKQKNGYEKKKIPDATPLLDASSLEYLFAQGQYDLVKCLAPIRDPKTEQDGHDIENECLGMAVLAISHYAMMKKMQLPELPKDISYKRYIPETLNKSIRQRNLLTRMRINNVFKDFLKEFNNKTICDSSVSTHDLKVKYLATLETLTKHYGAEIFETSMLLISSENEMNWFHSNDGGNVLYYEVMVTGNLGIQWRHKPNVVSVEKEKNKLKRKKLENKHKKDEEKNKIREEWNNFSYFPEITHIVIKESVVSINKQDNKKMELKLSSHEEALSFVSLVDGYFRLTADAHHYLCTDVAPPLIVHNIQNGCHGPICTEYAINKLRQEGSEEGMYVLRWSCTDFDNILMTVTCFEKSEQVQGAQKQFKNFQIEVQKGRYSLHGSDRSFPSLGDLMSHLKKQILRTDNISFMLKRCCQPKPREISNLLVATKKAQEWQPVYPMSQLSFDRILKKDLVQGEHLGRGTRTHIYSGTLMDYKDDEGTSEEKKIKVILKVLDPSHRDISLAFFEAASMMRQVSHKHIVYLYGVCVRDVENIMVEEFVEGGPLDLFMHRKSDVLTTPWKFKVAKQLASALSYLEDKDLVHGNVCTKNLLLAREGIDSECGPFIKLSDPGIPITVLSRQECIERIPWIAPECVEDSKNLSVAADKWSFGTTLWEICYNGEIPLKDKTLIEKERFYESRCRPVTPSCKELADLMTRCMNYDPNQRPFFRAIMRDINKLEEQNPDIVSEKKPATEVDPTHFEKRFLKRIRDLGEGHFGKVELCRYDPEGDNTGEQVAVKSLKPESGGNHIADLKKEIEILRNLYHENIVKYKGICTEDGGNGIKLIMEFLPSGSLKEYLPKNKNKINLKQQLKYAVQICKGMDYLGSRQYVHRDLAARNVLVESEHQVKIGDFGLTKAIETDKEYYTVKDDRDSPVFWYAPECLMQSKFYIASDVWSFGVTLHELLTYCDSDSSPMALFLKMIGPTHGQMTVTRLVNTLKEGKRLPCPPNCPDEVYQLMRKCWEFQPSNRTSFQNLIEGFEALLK

[23] = molecular target: Non-receptor tyrosine-protein kinase TYK2 (Homo sapiens, UniProt P29597); assay: Inhibition of GST-tagged human recombinant TYK2 (833 to 1187 residues) expressed in insect cells
Chain of Non-receptor tyrosine-protein kinase TYK2 (P29597 whole entry, the tested form may be a part): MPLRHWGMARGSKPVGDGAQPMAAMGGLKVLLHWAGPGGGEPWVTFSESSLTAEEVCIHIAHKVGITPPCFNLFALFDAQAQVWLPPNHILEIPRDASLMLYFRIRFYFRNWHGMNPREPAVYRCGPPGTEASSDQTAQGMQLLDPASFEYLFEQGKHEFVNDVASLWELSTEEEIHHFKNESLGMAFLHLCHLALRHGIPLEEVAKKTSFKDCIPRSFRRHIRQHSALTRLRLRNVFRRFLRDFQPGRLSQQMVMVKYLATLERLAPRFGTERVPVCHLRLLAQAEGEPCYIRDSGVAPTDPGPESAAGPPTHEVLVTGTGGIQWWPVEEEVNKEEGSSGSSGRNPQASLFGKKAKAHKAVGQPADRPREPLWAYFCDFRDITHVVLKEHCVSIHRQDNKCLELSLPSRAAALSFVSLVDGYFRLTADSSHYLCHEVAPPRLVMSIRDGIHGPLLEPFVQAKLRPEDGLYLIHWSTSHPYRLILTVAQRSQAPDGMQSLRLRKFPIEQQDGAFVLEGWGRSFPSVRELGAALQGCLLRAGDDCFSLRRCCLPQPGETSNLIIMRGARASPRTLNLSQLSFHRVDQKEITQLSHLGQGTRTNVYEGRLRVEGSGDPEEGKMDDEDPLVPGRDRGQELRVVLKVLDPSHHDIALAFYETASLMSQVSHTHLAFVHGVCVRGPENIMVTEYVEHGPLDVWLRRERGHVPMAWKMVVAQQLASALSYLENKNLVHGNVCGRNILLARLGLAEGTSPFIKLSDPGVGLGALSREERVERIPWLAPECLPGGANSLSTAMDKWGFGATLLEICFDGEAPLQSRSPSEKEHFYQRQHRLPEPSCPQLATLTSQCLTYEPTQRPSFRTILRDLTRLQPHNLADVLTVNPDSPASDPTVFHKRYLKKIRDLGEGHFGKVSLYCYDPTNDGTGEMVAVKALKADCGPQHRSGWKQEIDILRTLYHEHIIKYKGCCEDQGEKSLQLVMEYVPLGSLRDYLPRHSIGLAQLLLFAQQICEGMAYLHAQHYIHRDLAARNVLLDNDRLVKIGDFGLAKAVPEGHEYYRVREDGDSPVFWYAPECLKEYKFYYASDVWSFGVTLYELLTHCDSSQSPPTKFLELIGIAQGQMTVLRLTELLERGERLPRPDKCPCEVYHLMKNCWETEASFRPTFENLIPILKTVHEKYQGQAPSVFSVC

[24] = Metabolic stability in human liver microsomes assessed as intrinsic clearance; type: ADME, Microsome; conditions: read-out: CLH
[25] = molecular target: T2, Tyrosine-protein kinase JAK3 (Homo sapiens, UniProt P52333); assay: Inhibition of GST-tagged human recombinant JAK3 (781 to 1124 residues) expressed in insect cells
T2 sequence (P52333 whole entry): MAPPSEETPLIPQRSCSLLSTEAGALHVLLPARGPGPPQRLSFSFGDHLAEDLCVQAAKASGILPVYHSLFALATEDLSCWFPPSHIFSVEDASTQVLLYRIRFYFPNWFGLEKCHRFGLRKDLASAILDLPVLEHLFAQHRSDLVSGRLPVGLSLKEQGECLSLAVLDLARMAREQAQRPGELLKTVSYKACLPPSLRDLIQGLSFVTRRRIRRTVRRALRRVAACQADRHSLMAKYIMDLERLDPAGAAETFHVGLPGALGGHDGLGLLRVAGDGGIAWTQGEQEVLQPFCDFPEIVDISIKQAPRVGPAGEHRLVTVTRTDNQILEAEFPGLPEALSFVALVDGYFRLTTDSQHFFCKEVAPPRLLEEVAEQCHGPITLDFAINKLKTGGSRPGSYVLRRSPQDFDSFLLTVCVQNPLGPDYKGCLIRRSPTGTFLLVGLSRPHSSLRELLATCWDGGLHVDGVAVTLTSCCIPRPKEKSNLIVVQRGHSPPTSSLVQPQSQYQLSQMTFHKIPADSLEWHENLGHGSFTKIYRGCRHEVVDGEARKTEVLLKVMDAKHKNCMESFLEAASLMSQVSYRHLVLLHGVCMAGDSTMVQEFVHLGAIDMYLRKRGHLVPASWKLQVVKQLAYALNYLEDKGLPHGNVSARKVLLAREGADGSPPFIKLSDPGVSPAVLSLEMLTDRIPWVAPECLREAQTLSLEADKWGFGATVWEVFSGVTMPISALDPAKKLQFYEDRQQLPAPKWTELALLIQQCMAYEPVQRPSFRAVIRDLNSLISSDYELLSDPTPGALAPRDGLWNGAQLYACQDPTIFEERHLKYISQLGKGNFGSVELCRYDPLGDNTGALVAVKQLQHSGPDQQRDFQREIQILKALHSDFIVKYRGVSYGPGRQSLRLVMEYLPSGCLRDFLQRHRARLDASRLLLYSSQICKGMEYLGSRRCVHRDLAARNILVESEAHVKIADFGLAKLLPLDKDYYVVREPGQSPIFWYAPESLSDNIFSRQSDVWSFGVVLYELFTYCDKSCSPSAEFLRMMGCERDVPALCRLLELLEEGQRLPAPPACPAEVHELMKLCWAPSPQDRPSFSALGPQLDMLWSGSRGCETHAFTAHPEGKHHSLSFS

[26] = molecular target: T1, Tyrosine-protein kinase JAK1; assay: Inhibition of JAK1 in human CD14-positive cell monocytes isolated from human PBMC assessed as reduction in dendritic cells development measured after 5 days by flow cytometry analysis; type: cell-based; conditions: dose 10-1000 nM, time 5.0 day
[27] = AUC(0 to 24 hrs) in rat at 0.020 micromol/kg, IT; type: ADME; set-up: dose 0.02 µmol/kg, route it; conditions: in vivo, 0.02 µmol/kg
[28] = Drug uptake in lung of rat at 0.020 micromol/kg, IT; type: ADME, tissue-based; conditions: in vivo, other, dose 0.02 µmol/kg
[29] = molecular target: T1, Tyrosine-protein kinase JAK1; assay: Inhibition of JAK1 in human CD14-positive cell monocytes isolated from human PBMC assessed as reduction in mature dendritic phenotype by measuring CD14 expression level at 100 nM measured after 5 days by CD14 APC staining based flow cytometry analysis; conditions: time 5.0 day
[30] = Oral bioavailability in Han Wistar rat at 1 mg/kg; type: ADME, organism-based; conditions: in vivo
[31] = Volume of distribution at steady state in Han Wistar rat at 1 mg/kg, po or 0.5 mg/kg, iv; type: ADME, organism-based; conditions: in vivo
[32] = molecular target: T1, Tyrosine-protein kinase JAK1; assay: Inhibition of JAK1 in human CD14-positive cell monocytes isolated from human PBMC assessed as reduction in mature dendritic phenotype by measuring CD11c expression level at 100 nM measured after 5 days by CD11c PE-CF594 staining based flow cytometry analysis; conditions: time 5.0 day
[33] = Terminal half life in Han Wistar rat at 1 mg/kg, po; type: ADME, organism-based; conditions: in vivo, read-out: beta t1/2 (converted)
[34] = Volume of distribution at steady state in Han Wistar rat at 0.5 mg/kg, iv; type: ADME, organism-based; conditions: in vivo, read-out: Vdss
[35] = Inhibition of JAK/STAT signaling pathway in human U-937 cells assessed as inhibition of IL-4 stimulated STAT6 phosphorylation; type: cell-based
[36] = tested on: CD14-positive cell; assay: as §1; type: cell-based; conditions: time 35-75 min
[37] = Thermodynamic solubility of the compound in phosphate buffer at pH 6.5 measured after 24 hrs by HPLC-MS analysis; type: physicochemical; conditions: read-out: Therm_solubility
[38] = Efflux ratio of apparent permeability across apical to basolateral side in human Caco-2 cells at pH 7.4; type: ADME, cell-based; conditions: Caco-2, pH 7.4
[39] = Inhibition of JAK/STAT signaling pathway in human U-937 cells assessed as inhibition of IL-13 stimulated STAT6 phosphorylation; type: cell-based

Row | IC50 [4] [nM] | IC50 [5] [nM] | IC50 [10] [nM] | solubility [14] [µM] | fraction unbound [18] | Papp A→B [20] [×10⁻⁶ cm/s] | AUC(0-t) [27] [µM·h] | Drug uptake [28] | Activity [29] | Activity [32] | SMILES | inhibition [1] | Activity [2] | inhibition [3] | Activity [6] | inhibition [7] | Activity [8] | inhibition [9] | inhibition [11] | Activity [12] | Activity [13] | further results
1 | 53 | 57 | 65 | – | – | – | – | – | – | – | C[C@@H]1CCN(C(=O)CC#N)C[C@@H]1N(C)c1ncnc2[nH]ccc12 [TOFACITINIB] | Dose-Dependent Effect | Non-Toxic | Dose-Dependent Effect | Non-Toxic | Dose-Dependent Effect | Dose-Dependent Effect | Dose-Dependent Effect | Dose-Dependent Effect | Dose-Dependent Effect | Non-Toxic | –
2 | 21 | 28 | 20 | 6 (≈ 3.6 µg/mL) | 0.08 | 2.7 | 8.6 | Active | Active | Active | COC[C@H](C(=O)Nc1cccc2c(-c3nc(Nc4cccc(S(C)(=O)=O)c4F)ncc3F)c[nH]c12)N1CCN(C)CC1 [LONDAMOCITINIB] | Dose-Dependent Effect | Non-Toxic | Dose-Dependent Effect | Non-Toxic | Dose-Dependent Effect | Dose-Dependent Effect | Dose-Dependent Effect | Dose-Dependent Effect | Dose-Dependent Effect | Non-Toxic | hepatocyte CLint [15]: 1.3 µL/min/1e6 cells; Drug uptake [16]: Active; hepatocyte CLint [17]: 6.9 µL/min/1e6 cells; solubility thermodynamic at 24 h [19]: 7 µM (≈ 4.2 µg/mL); logD ([21]; octanol/water): 2.6; IC50 [22]: 0.54 nM; IC50 [23]: 657 nM; microsomal CLint [24]: 25 µL/min/mg; IC50 [25]: > 10000 nM; inhibition [26]: Dose-Dependent Effect; bioavailability [30]: 44%; Vdss [31]: 9.9 L/kg; half-life [33]: 4.7 h; Vd [34]: 11 L/kg; IC50 [35]: 24 nM
3 | 134 | – | – | – | – | – | – | – | Active | Active | C=CC(=O)Nc1cc(-c2ncnc3[nH]cc(C(=O)OCC)c23)ccc1C | Dose-Dependent Effect | Non-Toxic | Dose-Dependent Effect | Non-Toxic | Dose-Dependent Effect | Dose-Dependent Effect | Dose-Dependent Effect | Dose-Dependent Effect | Dose-Dependent Effect | Non-Toxic | inhibition [36]: inactive
4 | – | – | – | 11 (≈ 6.38 µg/mL) | 0.05 | 2.7 | 1.6 | Active | – | – | CC[C@H](C(=O)Nc1cccc2c(-c3nc(Nc4cccc(S(C)(=O)=O)c4F)ncc3C)c[nH]c12)N1CCN(C)CC1 | – | – | – | – | – | – | – | – | – | – | solubility thermodynamic at 24 h [37]: 104 µM (≈ 60.3 µg/mL); logD ([21]; 1-octanol/aqueous phosphate buffer, read-out: logD): 2.8; efflux ratio [38]: 3.6; IC50 [39]: 22 nM; Vd [34]: 9 L/kg; IC50 [35]: 15 nM
